Molecular target: T1, recombinant human plasminogen activator inhibitor-1 (PAI-1) (Homo sapiens, UniProt P05121)
T1 construct: purchased Molecular Innovations, Royal Oak, Mich
Assay: Primary screen for the PAI-1 inhibition (chromogenic tPA activity, Spectrozyme-tPA)
Assay type: biochemical
Settings: compound at 100 μM
Method: Test compounds are dissolved in DMSO at a final concentration of 10 mM, then diluted 100× in physiologic buffer. The inhibitory assay is initiated by the addition of the substituted oxadiazolidinedione (1–100 μM final concentration, maximun DMSO concentration of 0.2%) in a pH 6.6 buffer containing 140 nM recombinant human plasminogen activator inhibitor-1 (PAI-1; Molecular Innovations, Royal Oak, Mich.). Following a 1 hour incubation at room temperature, 70 nM of recombinant human tissue plasminogen activator (tPA) is added, and the combination of the substituted oxadiazolidinedione, PAI-1 and tPA is incubated for an additional 30 minutes. Following the second incubation, Spectrozyme-tPA (American Diagnostica, Greenwich, Conn.), a chromogenic substrate for tPA, is added and absorbance read at 405 nm at 0 and 60 minutes. Relative PAI-1 inhibition is equal to the residual tPA activity in the presence of the test compound and PAI-1. Control treatments include the complete inhibition of tPA by PAI-1 at the molar ratio employed (2:1), and the absence of any effect of the substituted oxadiazolidinedione on tPA alone.

T1 sequence (P05121 24-402): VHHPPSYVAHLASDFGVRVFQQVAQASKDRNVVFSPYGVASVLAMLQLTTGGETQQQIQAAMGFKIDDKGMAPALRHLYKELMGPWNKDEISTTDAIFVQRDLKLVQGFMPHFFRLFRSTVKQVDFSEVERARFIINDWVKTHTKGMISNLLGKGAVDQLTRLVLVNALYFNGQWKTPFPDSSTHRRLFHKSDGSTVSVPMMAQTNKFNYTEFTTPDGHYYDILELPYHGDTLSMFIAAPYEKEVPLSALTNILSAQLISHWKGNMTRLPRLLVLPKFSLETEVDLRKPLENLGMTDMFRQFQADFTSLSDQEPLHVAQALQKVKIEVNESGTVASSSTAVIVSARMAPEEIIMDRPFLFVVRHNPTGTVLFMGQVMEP

inhibition at 100 µM [%]	Structure (SMILES)
91	C#CCn1cc(Cn2oc(=O)[nH]c2=O)c2cc(OCc3ccc(C(C)(C)C)cc3)ccc21 [Compound 23, 2-{[5-[(4-tert-butylbenzyl)oxy]-1-(2-propynyl)-1H-indol-3-yl]methyl}-1,2,4-oxadiazolidine-3,5-dione]
68	C#CCn1cc(Cn2oc(=O)[nH]c2=O)c2cc(OCc3ccc(Br)cc3)ccc21 [Compound 24, 2-{[5-[(4-bromobenzyl)oxy]-1-(2-propynyl)-1H-indol-3-yl]methyl}-1,2,4-oxadiazolidine-3,5-dione]
64	C=CCn1cc(Cn2oc(=O)[nH]c2=O)c2cc(OCc3ccc(Br)cc3)ccc21 [Compound 25, 2-({1-allyl-5-[(4-bromobenzyl)oxy]-1H-indol-3-yl}methyl)-1,2,4-oxadiazolidine-3,5-dione]
100	C#CCn1cc(Cn2oc(=O)[nH]c2=O)c2cc(OCc3cccc(Br)c3)ccc21 [Compound 26, 2-{[5-[(3-bromobenzyl)oxy]-1-(2-propynyl)-1H-indol-3-yl]methyl}-1,2,4-oxadiazolidine-3,5-dione]
100	C=CCn1cc(Cn2oc(=O)[nH]c2=O)c2cc(OCc3cccc(Br)c3)ccc21 [Compound 27, 2-({1-allyl-5-[(3-bromobenzyl)oxy]-1H-indol-3-yl}methyl)-1,2,4-oxadiazolidine-3,5-dione]
48	C#CCn1cc(Cn2oc(=O)[nH]c2=O)c2cc(OCc3cccc(Cl)c3)ccc21 [Compound 28, 2-{[5-[(3-chlorobenzyl)oxy]-1-(2-propynyl)-1H-indol-3-yl]methyl}-1,2,4-oxadiazolidine-3,5-dione]
79	C=CCn1cc(Cn2oc(=O)[nH]c2=O)c2cc(OCc3cccc(C(F)(F)F)c3)ccc21 [Compound 29, 2-[(1-allyl-5-{[3-(trifluoromethyl)benzyl]oxy}-1H-indol-3-yl)methyl]-1,2,4-oxadiazolidine-3,5-dione]
91	C=CCn1cc(Cn2oc(=O)[nH]c2=O)c2cc(OCc3ccccc3Cl)ccc21 [Compound 33, 2-({1-allyl-5-[(2-chlorobenzyl)oxy]-1H-indol-3-yl}methyl)-1,2,4-oxadiazolidine-3,5-dione]
87	C=CCn1cc(Cn2oc(=O)[nH]c2=O)c2cc(OCc3ccc(Cl)c(Cl)c3)ccc21 [Compound 34, 2-({1-allyl-5-[(3,4-dichlorobenzyl)oxy]-1H-indol-3-yl}methyl)-1,2,4-oxadiazolidine-3,5-dione]
100	O=c1[nH]c(=O)n(Cc2cccc(-c3cccc(OCc4ccccc4Cl)c3)c2)o1 [Compound 36, 2-({3′-[(2-chlorobenzyl)oxy]-1,1′-biphenyl-3-yl}methyl)-1,2,4-oxadiazolidine-3,5-dione]
69	O=c1[nH]c(=O)n(Cc2cccc(-c3cccc(OCc4cc(C(F)(F)F)cc(C(F)(F)F)c4)c3)c2)o1 [Compound 38, 2-[(3′-{[3,5-bis(trifluoromethyl)benzyl]oxy}-1,1′-biphenyl-3-yl)methyl]-1,2,4-oxadiazolidine-3,5-dione]
99	O=c1[nH]c(=O)n(Cc2cccc(-c3cccc(OCc4cccc(Cl)c4)c3)c2)o1 [Compound 39, 2-({3′-[(3-chlorobenzyl)oxy]-1,1′-biphenyl-3-yl}methyl)-1,2,4-oxadiazolidine-3,5-dione]
96	O=c1[nH]c(=O)n(Cc2cccc(-c3cccc(OCc4ccccc4)c3)c2)o1 [Compound 40, 2-{[3′-(benzyloxy)-1,1′-biphenyl-3-yl]methyl}-1,2,4-oxadiazolidine-3,5-dione]
100	O=c1[nH]c(=O)n(Cc2cccc(-c3cccc(OCc4ccc(Cl)cc4)c3)c2)o1 [Compound 42, 2-({3′-[(4-chlorobenzyl)oxy]-1,1′-biphenyl-3-yl}methyl)-1,2,4-oxadiazolidine-3,5-dione]
100	O=c1[nH]c(=O)n(Cc2cccc(-c3cccc(OCc4ccc(Cl)c(Cl)c4)c3)c2)o1 [Compound 43, 2-({3′-[(3,4-dichlorobenzyl)oxy]-1,1′-biphenyl-3-yl}methyl)-1,2,4-oxadiazolidine-3,5-dione]
28	O=c1[nH]c(=O)n(Cc2cccc(-c3cccc(OCc4ccc5ccccc5c4)c3)c2)o1 [Compound 44, 2-{[3′-(2-naphthylmethoxy)-1,1′-biphenyl-3-yl]methyl}-1,2,4-oxadiazolidine-3,5-dione]
94	Cc1ccc(COc2cccc(-c3cccc(Cn4oc(=O)[nH]c4=O)c3)c2)cc1 [Compound 45, 2-({3′-[(4-methylbenzyl)oxy]-1,1′-biphenyl-3-yl}methyl)-1,2,4-oxadiazolidine-3,5-dione]
80	Cc1cccc(COc2cccc(-c3cccc(Cn4oc(=O)[nH]c4=O)c3)c2)c1 [Compound 46, 2-({3′-[(3-methylbenzyl)oxy]-1,1′-biphenyl-3-yl}methyl)-1,2,4-oxadiazolidine-3,5-dione]

inhibition at 100 µM [%]	Structure (SMILES)
88	O=c1[nH]c(=O)n(Cc2cccc(-c3cccc(OCc4c(Cl)cccc4Cl)c3)c2)o1 [Compound 47, 2-({3′-[(2,6-dichlorobenzyl)oxy]-1,1′-biphenyl-3-yl}methyl)-1,2,4-oxadiazolidine-3,5-dione]
60	CC(C)(C)c1ccc(COc2cccc(-c3ccc(Cn4oc(=O)[nH]c4=O)cc3)c2)cc1 [Compound 53, 2-({3′-[(4-tert-butylbenzyl)oxy]-1,1′-biphenyl-4-yl}methyl)-1,2,4-oxadiazolidine-3,5-dione]
10	O=c1[nH]c(=O)n(Cc2ccc(-c3cccc(OCc4ccc(Br)cc4)c3)cc2)o1 [Compound 54, 2-({3′-[(4-bromobenzyl)oxy]-1,1′-biphenyl-4-yl}methyl)-1,2,4-oxadiazolidine-3,5-dione]
41	O=c1[nH]c(=O)n(Cc2ccc(-c3ccc(OCc4cccc(Br)c4)cc3)cc2)o1 [Compound 55, 2-({4′-[(3-bromobenzyl)oxy]-1,1′-biphenyl-4-yl}methyl)-1,2,4-oxadiazolidine-3,5-dione]
65	O=c1[nH]c(=O)n(Cc2ccc(C#Cc3ccccc3)cc2)o1 [Compound 56, 2-[4-(phenylethynyl)benzyl]-1,2,4-oxadiazolidine-3,5-dione]
56	CCCCC#Cc1ccc(Cn2oc(=O)[nH]c2=O)cc1 [Compound 57, 2-(4-hex-1-ynylbenzyl)-1,2,4-oxadiazolidine-3,5-dione]
38	O=c1[nH]c(=O)n(Cc2cccc(C#Cc3ccccc3)c2)o1 [Compound 60, 2-[3-(phenylethynyl)benzyl]-1,2,4-oxadiazolidine-3,5-dione]
87	O=c1[nH]c(=O)n(Cc2ccc(C#CCOc3cc(C(F)(F)F)cc(C(F)(F)F)c3)cc2)o1 [Compound 61, 2-(4-{3-[3,5-bis(trifluoromethyl)phenoxy]prop-1-ynyl}benzyl)-1,2,4-oxadiazolidine-3,5-dione]
82	O=c1[nH]c(=O)n(Cc2ccc(C#CCOc3cc(Cl)cc(Cl)c3)cc2)o1 [Compound 62, 2-{4-[3-(3,5-dichlorophenoxy)prop-1-ynyl]benzyl}-1,2,4-oxadiazolidine-3,5-dione]
85	O=c1[nH]c(=O)n(Cc2ccc(C#CCOc3cccc(Cl)c3)cc2)o1 [Compound 63, 2-{4-[3-(3-chlorophenoxy)prop-1-ynyl]benzyl}-1,2,4-oxadiazolidine-3,5-dione]
77	CC(C)(C)c1ccc(OCC#Cc2cccc(Cn3oc(=O)[nH]c3=O)c2)cc1 [Compound 65, 2-{3-[3-(4-tert-butylphenoxy)prop-1-ynyl]benzyl}-1,2,4-oxadiazolidine-3,5-dione]
85	O=c1[nH]c(=O)n(Cc2cccc(C#CCOc3ccc(Br)cc3)c2)o1 [Compound 66, 2-{3-[3-(4-bromophenoxy)prop-1-ynyl]benzyl}-1,2,4-oxadiazolidine-3,5-dione]
84	O=c1[nH]c(=O)n(Cc2cccc(C#CCOc3cc(C(F)(F)F)cc(C(F)(F)F)c3)c2)o1 [Compound 67, 2-(3-{3-[3,5-bis(trifluoromethyl)phenoxy]prop-1-ynyl}benzyl)-1,2,4-oxadiazolidine-3,5-dione]
93	O=c1[nH]c(=O)n(Cc2cccc(C#CCOc3cc(Cl)cc(Cl)c3)c2)o1 [Compound 68, 2-{3-[3-(3,5-dichlorophenoxy)prop-1-ynyl]benzyl}-1,2,4-oxadiazolidine-3,5-dione]
85	O=c1[nH]c(=O)n(Cc2cccc(C#CCOc3cccc(Cl)c3)c2)o1 [Compound 69, 2-{3-[3-(3-chlorophenoxy)prop-1-ynyl]benzyl}-1,2,4-oxadiazolidine-3,5-dione]
85	O=c1[nH]c(=O)n(Cc2cc(OCc3cccc(Cl)c3)cc(OCc3cccc(Cl)c3)c2)o1 [Compound 71, 2-{3,5-bis[(3-chlorobenzyl)oxy]benzyl}-1,2,4-oxadiazolidine-3,5-dione]
87	O=c1[nH]c(=O)n(Cc2cc(OCc3ccc(C(F)(F)F)cc3)cc(OCc3ccc(C(F)(F)F)cc3)c2)o1 [Compound 72, 2-(3,5-bis{[4-(trifluoromethyl)benzyl]oxy}benzyl)-1,2,4-oxadiazolidine-3,5-dione]
81	Cc1cccc(COc2cc(Cn3oc(=O)[nH]c3=O)cc(OCc3cccc(C)c3)c2)c1 [Compound 73, 2-{3,5-bis[(3-methylbenzyl)oxy]benzyl}-1,2,4-oxadiazolidine-3,5-dione]
